# Key:
# [1] = system: Candida (Issatchenkia) krusei ATCC6258 - reference strain; format: cell-based
# Procedure: (§1) Yeast and filamentous fungal MIC were performed in MOPS buffered RPMI 1640 medium (MOPS buffer obtained from Sigma Aldrich Ltd., RPMI 1640 obtained from Invitrogen Ltd, Paisley, Scotland). The yeast inocula were in the range 7.5×10^2-4×10^3 CFU/mL and the filamentous fungi approximately 8×10^3-1×10^5 CFU/mL
# [2] = system: Candida tropicalis ATCC750 - reference strain; format: cell-based
# Procedure: as §1
# [3] = system: Cryptococcus neoformans - G.R. Micro collection; format: cell-based
# Procedure: as §1
# [4] = system: Trichophyton mentagrophytes - G.R. Micro collection; format: cell-based
# Procedure: as §1
# [5] = system: Corynebacterium jeikeium - antibiotic-susceptible clinical isolate; format: cell-based
# From the text: (§2) Cation-adjusted Mueller-Hinton broth (Oxoid Ltd., Basingstoke, UK and Trek Diagnostic Systems Ltd., East Grinstead, UK) (supplemented with 5% laked horse blood for Streptococcus spp., Corynebacterium jeikeium and Listeria monocytogenes) was used for aerobic bacteria, with an initial inoculum of approximately 10^5 colony-forming units (CFU)/mL.
# [6] = system: Corynebacterium jeikeium - multi-drug resistant clinical isolate; format: cell-based
# From the text: as §2
# [7] = system: EMRSA15 Staphylococcus aureus (MRSA) - SSCmec type 4; format: cell-based; details: EMRSA15 - SSCmec type 4
# From the text: as §2
# [8] = system: EMRSA3 Staphylococcus aureus (MRSA) - SSCmec type 1; format: cell-based; details: EMRSA3 - SSCmec type 1
# From the text: as §2
# [9] = system: Enterococcus gallinarum vancomycin-resistant (VanC) clinical isolate; format: cell-based
# From the text: as §2
# [10] = system: HT2001254 Staphylococcus aureus (MRSA) - PVL positive; format: cell-based
# From the text: as §2
# [11] = system: Moraxella catarrhalis - reduced fluoroquinolone susceptibility clinical isolate; format: cell-based
# From the text: as §2
# [12] = system: Moraxella catarrhalis - β -lactamase positive clinical isolate; format: cell-based
# From the text: as §2
# [13] = system: Pseudomonas aeruginosa - multi-drug resistant clinical isolate; format: cell-based
# From the text: as §2
# [14] = system: Staphylococcus aureus - methicillin-resistant clinical isolate; format: cell-based
# From the text: as §2
# [15] = system: Staphylococcus aureus ATCC 25923 - antibiotic-susceptible control strain; format: cell-based
# From the text: as §2
# [16] = system: Staphylococcus aureus ATCC 29213 - antibiotic-susceptible control strain; format: cell-based
# From the text: as §2
# [17] = system: Staphylococcus aureus ATCC 43300 - methicillin-resistant control strain; format: cell-based
# From the text: as §2
# [18] = system: Staphylococcus epidermidis antibiotic susceptible clinical isolate; format: cell-based
# From the text: as §2
# [19] = system: Staphylococcus epidermidis methicillin-resistant clinical isolate; format: cell-based
# From the text: as §2
# [20] = system: Staphylococcus haemolyticus - antibiotic susceptible clinical isolate; format: cell-based
# From the text: as §2
# [21] = system: Staphylococcus saprophyticus - antibiotic susceptible clinical isolate; format: cell-based
# From the text: as §2
# [22] = system: Streptococcus agalactiae - antibiotic-susceptible clinical isolate; format: cell-based
# From the text: as §2
# [23] = system: Streptococcus bovis - macrolide-resistant clinical isolate; format: cell-based
# From the text: as §2
# [24] = system: Staphylococcus aureus FDA486; test: Murine skin infection model, topical treatment; format: in vivo; details: mice; cream or gel containing 2% (w/w); three treatments at three hourly intervals; biopsy three hours after last
# Procedure: (§3) The skin of mice was infected with Staphylococcus aureus or Streptococcus pyogenes and subsequently given a total of three treatments at three hourly intervals. Three hours after the last treatment, skin biopsies were collected and the number of colony forming units (CFUs) present in the skin sample was determined. Results are shown in FIGS. 1 and 2, expressed as the number of colony forming units per mouse.
# as §3, with “3, 4” for “1”, “5” for “2,”
# [25] = system: Streptococcus pyogenes CS301; test: Murine skin infection model, topical treatment; format: in vivo; details: mice
# Procedure: as §3
# as §3, with “3, 4” for “1”, “5” for “2,”
# [26] = system: Staphylococcus aureus, strain ATCC 25923; details: ATCC 25923
# [27] = system: Methicillin resistant Staphylococcus aureus (MRSA) strain ATCC 33591; details: ATCC 33591
# [28] = system: Methicillin resistant Staphylococcus epidermidis (MRSE) strain ATCC 27626; details: ATCC 27626
# [29] = system: C. albicans; details: Table 5
# [30] = system: S. pyogenes; details: Table 5
# [31] = system: E. coli; details: Table 5
# [32] = system: P. aeruginosa; details: Table 5
structure (smiles),measurement,setting,value
CC(C)NC(=O)[C@H](CCCNC(=N)N)NC(=O)[C@H](Cc1c(C(C)(C)C)[nH]c2c(C(C)(C)C)cc(C(C)(C)C)cc12)NC(=O)[C@@H](N)CCCNC(=N)N [Compound 7],MIC,[1],8 µg/mL
same,MIC,[2],4 µg/mL
same,MIC,[3],8 µg/mL
same,MIC,[4],8 µg/mL
same,MIC,[5],8 µg/mL
same,MIC,[6],8 µg/mL
same,MIC,[7],8 µg/mL
same,MIC,[8],8 µg/mL
same,MIC,[9],8 µg/mL
same,MIC,[10],8 µg/mL
same,MIC,[11],8 µg/mL
same,MIC,[12],4 µg/mL
same,MIC,[13],8 µg/mL
same,MIC,[14],8 µg/mL
same,MIC,[15],8 µg/mL
same,MIC,[16],8 µg/mL
same,MIC,[17],8 µg/mL
same,MIC,[18],4 µg/mL
same,MIC,[19],4 µg/mL
same,MIC,[20],4 µg/mL
same,MIC,[21],2 µg/mL
same,MIC,[22],8 µg/mL
same,MIC,[23],8 µg/mL
same,number of CFUs in skin biopsy vs placebo,[24],the number of CFUs was reduced
same,number of CFUs in skin biopsy vs placebo gel and bactroban,"[25]; 1% or 2% gel, three treatments at three hourly intervals",more effective at reducing the number of CFUs from a Streptococcus pyogenes CS 301 infection than the placebo gel or the bactroban
same,"number of CFUs in skin biopsy, 2% gel compared with 1% gel",[25]; 2% gel vs 1% gel,more effective than the gel containing only 1% of compound 7
same,S. aureus (MIC),[26],<2 µg/mL
same,MRSA (MIC),[27],<2 µg/mL
same,MRSE (MIC),[28],<2 µg/mL
same,C. albicans (MIC),[29],25 µg/mL
same,S. pyogenes (MIC),[30],<2 µg/mL
same,E. coli (MIC),[31],7 µg/mL
same,P. aeruginosa (MIC),[32],7 µg/mL

# Reference: patent US20230338609A1, “MEDICAL DEVICES AND MATERIALS COMPRISING BIODEGRADABLE POLYESTERS” (AMICOAT AS, priority 2020, published 2023)
